The source of these data is patent publication US20250340537A1, “PHARMACEUTICALLY ACTIVE COMPOUNDS, COMPOSITIONS, AND METHODS FOR MODULATING PENDRIN” (ARBORMED Co., Ltd., priority 2022, published 2025).

The structures appear in SMILES notation.

The experiment concerns the target T1, H723R-pendrin (Homo sapiens, UniProt O43511, H723R).
T1 construct: expressed in transfected cells; host or cells: PANC-1
T1 sequence (O43511 1-780 H723R): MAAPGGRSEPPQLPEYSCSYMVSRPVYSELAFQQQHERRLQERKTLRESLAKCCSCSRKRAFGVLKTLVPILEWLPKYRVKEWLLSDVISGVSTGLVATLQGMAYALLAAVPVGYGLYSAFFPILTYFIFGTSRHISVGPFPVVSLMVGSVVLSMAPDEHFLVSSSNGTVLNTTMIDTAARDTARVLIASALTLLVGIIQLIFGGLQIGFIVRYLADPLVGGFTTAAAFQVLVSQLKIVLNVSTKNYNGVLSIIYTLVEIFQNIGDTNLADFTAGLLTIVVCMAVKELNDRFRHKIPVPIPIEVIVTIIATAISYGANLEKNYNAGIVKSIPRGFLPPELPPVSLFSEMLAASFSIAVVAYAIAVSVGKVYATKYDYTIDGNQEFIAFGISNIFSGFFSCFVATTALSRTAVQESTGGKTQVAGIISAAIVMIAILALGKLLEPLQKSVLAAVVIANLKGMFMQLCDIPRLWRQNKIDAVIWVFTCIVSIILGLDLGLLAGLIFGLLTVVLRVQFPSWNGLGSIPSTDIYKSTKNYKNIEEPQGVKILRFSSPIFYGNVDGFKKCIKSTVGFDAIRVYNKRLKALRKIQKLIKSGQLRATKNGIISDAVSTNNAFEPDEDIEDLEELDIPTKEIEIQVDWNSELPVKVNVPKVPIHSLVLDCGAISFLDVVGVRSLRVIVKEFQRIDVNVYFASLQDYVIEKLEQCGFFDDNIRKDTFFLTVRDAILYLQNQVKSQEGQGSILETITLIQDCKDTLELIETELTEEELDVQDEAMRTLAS
The experiment is described as follows: YFP fluorescence quenching assay (Cl−/I− exchange activity of pendrin). It is filed as cell-based. The settings on record: PANC-1 cells stably expressing human H723R-pendrin and YFP-F46L/H148Q/I152L; compound incubation 20-24 hours; iodide influx. An excerpt: Halide sensor YFP F46L/H148Q/I152L is quenched by halide ion like Iodide. When such YFP is expressed in a cell, it expresses in the cytoplasm.
To measure H723R-PDS activity, PANC-1 cells were stably transfected with halide sensors YFP-F46L/H148Q/I152L and H723R-PDS which has problems with membrane trafficking due to misfolding.
If the cell-treated drug is a corrector for H723R-PDS, H723R-PDS will translocate normally to the plasma membrane.
At this time, when treated with a high-concentration iodide solution outside the cell, iodide enters the cell due to the Cl−/I− exchange activity of pendrin, and the fluorescence of the halide sensor YFP decreases.
PANC-1 cells were cultured in Dulbecco's Modified Eagle's Medium with 10% fetal bovine serum, 2 mM glutamine, 100 units/ml penicillin and 100 µg/ml streptomycin. For high-throughput screening, PANC-1 cells were stably transfected with human H723R-pendrin and halide sensor YFP-F46L/H148Q/I152L.
PANC-1 cells expressing human H723R-pendrin and YFP-F46L/H148Q/I152L were plated in 96-well microplates at a density of 2×10^4 cells per well and grown for 20-24 hours at 37° C. (90% humidity 5% CO2). Then these cells were treated with 50 μl growth medium containing test compounds and incubated for 20-24 hours. For YFP quenching assay, each well of the 96-well plate was washed 2 times with 200 μl of PBS, and it was filled with 50 μl of HEPES-buffered solution (140 mM NaCl, 5 mM KCl, 1 mM MgCl2, 1 mM CaCl2, 10 mM D-glucose, 10 mM HEPES; pH 7.4 with NaOH). After 10 minutes of incubation at 37° C., the 96-well plate was moved on the FLUOstar Omega Microplate Reader (BMG Labtech, Ortenberg, Germany) for a fluorescence assay. Each well was assayed individually for H723R-pendrin mediated I^− influx by recording fluorescence (495±15 nm excitation, 520±20 nm emission) every 400 ms for 1 second (baseline). Then, 50 μL of NaI-substituted HEPES-buffered solution (NaI replacing NaCl) was added using a liquid injector at 1 second and YFP fluorescence was recorded every 400 ms for 10 seconds. The initial iodide influx rate was determined from the initial slope of fluorescence by nonlinear regression, after the infusion of iodide.
It is indicated as EC50 with the following key: A=EC50 less than 5 uM; B=EC50 greater than 5 uM, but less than 10 uM; C=EC50 greater than 10 uM.
In turn, `COc1ccc(-c2cccc(C3=C(N)N(CCC(F)(F)F)CC3=O)n2)cc1OC` [Compound 93] showed an EC50 of more than 10 µM.

`COc1ccc(-c2cncc(C3=C(N)N(c4ccccc4O)CC3=O)n2)cc1OC` [Compound 42] registered a half-maximal effective concentration (EC50) of more than 10 µM.

`NC1=C(c2cncc(-c3ccc(O)c(O)c3)c2)C(=O)CN1CCC(F)(F)F` [Compound 95] yielded an EC50 of more than 10 µM.

For `NC1=C(c2cncc(-c3ccc(O)c(O)c3)c2)C(=O)CN1CC1CCCC1` [Compound 54], the EC50 is more than 10 µM.

As to `NC1=C(c2cncc(-c3ccc(O)c(OC4CC(O)C4)c3)n2)C(=O)CN1CC1CCCC1` (stereo not drawn) [Compound 111], the EC50 was less than 5 µM.

Regarding `COc1ccc(-c2cc(C3=C(N)N(c4ccccc4F)CC3=O)ccn2)cc1OC` [Compound 100], the EC50 was more than 10 µM.

As for `COc1ccc(-c2nccc(C3=C(N)N(c4ccccc4F)CC3=O)n2)cc1OC` [Compound 5], the EC50 was more than 10 µM.

For `NC1=C(c2ccnc(-c3ccc(O)c(O)c3)c2)C(=O)CN1c1ccccc1Cl` [Compound 102], the EC50 is more than 10 µM.

In the case of `NC1=C(c2cccc(-c3ccc(O)c(O)c3)n2)C(=O)CN1c1ccccc1Cl` [Compound 76], the EC50 is more than 10 µM.

The molecule `NC1=C(c2cncc(-c3ccc4c(c3)OCO4)n2)C(=O)CN1c1ccccc1Cl` [Compound 10] showed an EC50 of more than 10 µM.

`COc1ccc(-c2cncc(C3=C(N)N(c4ccccc4Cl)CC3=O)n2)c(OC)c1` [Compound 20] had an EC50 of 5 to 10 µM.

In the case of `COc1ccc(-c2ccnc(C3=C(N)N(CC4CCNC4)CC3=O)n2)cc1OC` (stereo not drawn) [Compound 82], the EC50 was more than 10 µM.

`NC1=C(c2cccc(-c3ccc(O)c(O)c3)n2)C(=O)CN1CC1CCCC1` [Compound 81] displayed an EC50 of less than 5 µM.

Molecule `COCOc1ccc(-c2cncc(C3=C(N)N(C4CCCC4)CC3=O)n2)cc1OC1COC1` [Compound 115] returned an EC50 of more than 10 µM.

`COc1ccc(-c2ccnc(C3=C(N)N(CC4CCOC4)CC3=O)n2)cc1OC` (stereo not drawn) [Compound 84] yielded an EC50 of more than 10 µM.

`COc1ccc(-c2cccc(C3=C(N)N(CC4CCOC4)CC3=O)n2)cc1OC` (stereo not drawn) [Compound 87] registered an EC50 of 5 to 10 µM.

`NC1=C(c2cncc(-c3cc(O)cc(O)c3)n2)C(=O)CN1c1ccccc1Cl` [Compound 24] yielded an EC50 of more than 10 µM.

The molecule `NC1=C(c2cncc(-c3ccc(O)c(OCCO)c3)n2)C(=O)CN1CC1CCCC1` [Compound 103] gave a concentration for a half-maximal effect (EC50) of more than 10 µM.

As to `COc1ccc(-c2cncc(C3=C(N)N(CCC(F)(F)F)CC3=O)n2)cc1OC` [Compound 17], the EC50 was more than 10 µM.

`NC1=C(c2cncc(-c3ccc(O)c(O)c3)n2)C(=O)CN1c1ccccc1F` [Compound 78] registered an EC50 of less than 5 µM.

Consider `COc1ccc(-c2ccnc(C3=C(N)N(CCC(F)(F)F)CC3=O)n2)cc1OC` [Compound 96], for which the EC50 is more than 10 µM.

For `COc1cc(-c2ccnc(C3=C(N)N(CC4CCCC4)CC3=O)n2)ccc1O` [Compound 110], the EC50 is less than 5 µM.

Molecule `NC1=C(c2cncc(-c3ccc(O)c(O)c3)c2)C(=O)CN1CC1CCOC1` (stereo not drawn) [Compound 51] gave an EC50 of more than 10 µM.

Regarding `COc1ccc(-c2cncc(C3=C(N)N(CC4CCCC4)CC3=O)c2)cc1OC` [Compound 50], the EC50 is more than 10 µM.

Take `NC1=C(c2cncc(-c3ccc(O)c(O)c3)n2)C(=O)CN1c1cccc(Cl)c1Cl` [Compound 64]: the EC50 lay in the range of 5 to 10 µM.

`COCOc1ccc(-c2cncc(C3=C(N)N(CC4CCCC4)CC3=O)n2)cc1OC` [Compound 116] came in with an EC50 of less than 5 µM.

Consider `COc1cc(-c2cncc(C3=C(N)N(CC4CCCC4)CC3=O)c2)ccc1O` [Compound 71], for which the EC50 was more than 10 µM.

The molecule `COc1ccc(-c2cccc(C3=C(N)N(c4ccccc4Cl)CC3=O)n2)cc1OC` [Compound 75] showed an EC50 of more than 10 µM.

Take `NC1=C(c2cncc(-c3ccc(O)c(OC(F)(F)F)c3)n2)C(=O)CN1c1ccccc1Cl` [Compound 32]: the EC50 fell in the range of 5 to 10 µM.

Consider `COc1ccc(-c2cccc(C3=C(N)N(CC4CCCC4)CC3=O)n2)cc1OC` [Compound 80], for which the EC50 is more than 10 µM.

In turn, `COC(CN1CCN(c2cncc(C3=C(N)N(c4ccccc4Cl)CC3=O)n2)CC1)OC` [Compound 25] registered an EC50 of more than 10 µM.

Regarding `NC1=C(c2cncc(-c3ccc(O)c(O)c3)n2)C(=O)CN1c1cccnc1Cl` [Compound 119], the EC50 was more than 10 µM.

Consider `COc1ccc(-c2cncc(C3=C(N)N(C4CCC(F)(F)C4)CC3=O)n2)cc1OC` (stereo not drawn) [Compound 61], for which the 50% effective concentration (EC50) was more than 10 µM.

Turning to `COc1ccc(-c2cncc(C3=C(N)N(CCC4CCCC4)CC3=O)n2)cc1OC` [Compound 44], the EC50 was less than 5 µM.

As to `NC1=C(c2cncc(-c3ccc(O)c(OC4COC4)c3)n2)C(=O)CN1C1CCCC1` [Compound 117], the EC50 is 5 to 10 µM.

As for `NC1=C(c2cccc(-c3ccc(O)c(O)c3)n2)C(=O)CN1CCC(F)(F)F` [Compound 94], the EC50 was more than 10 µM.

Turning to `COc1ccc(-c2cc(C3=C(N)N(c4ccccc4Cl)CC3=O)ccn2)cc1OC` [Compound 106], the EC50 was more than 10 µM.

`NC1=C(c2cncc(-c3ccc(OC(F)(F)F)c(O)c3)n2)C(=O)CN1c1ccccc1Cl` [Compound 31] came in with an EC50 of more than 10 µM.

The molecule `NC1=C(c2cncc(-c3ccc(O)c(O)c3)c2)C(=O)CN1CC1CCNC1` (stereo not drawn) [Compound 60] yielded a concentration giving a half-maximal response (EC50) of more than 10 µM.

`COc1ccc(-c2cncc(C3=C(N)N(CC4CCOC4)CC3=O)n2)cc1OC` (stereo not drawn) [Compound 36] had an EC50 of more than 10 µM.

For the molecule `COc1ccc(-c2ccnc(C3=C(N)N(c4ccccc4F)CC3=O)n2)cc1OC` [Compound 1], the 50% effective concentration (EC50) is more than 10 µM.

In turn, `NC1=C(c2cncc(-c3ccc(O)c(O)c3)n2)C(=O)CN1c1ccccc1O` [Compound 43] yielded an EC50 of more than 10 µM.

`NC1=C(c2nccc(-c3ccc(O)c(O)c3)n2)C(=O)CN1CC1CCNC1` (stereo not drawn) [Compound 83] displayed a half-maximal effective concentration (EC50) of more than 10 µM.

The molecule `COc1ccc(-c2ccc(C3=C(N)N(c4ccccc4Cl)CC3=O)cn2)cc1OC` [Compound 58] yielded an EC50 of more than 10 µM.

Turning to `NC1=C(c2nccc(-c3ccc(O)c(O)c3)n2)C(=O)CN1CC1CCCC1` [Compound 65], the concentration for a half-maximal effect (EC50) is 5 to 10 µM.

`NC1=C(c2cncc(-c3ccc(O)c(OC4CCC4)c3)n2)C(=O)CN1CC1CCCC1` [Compound 67] showed an EC50 of more than 10 µM.

On to `COc1ccc(-c2cncc(C3=C(N)N(CCC(F)(F)F)CC3=O)c2)cc1OC` [Compound 88], for which the EC50 was more than 10 µM.

In turn, `COc1ccc(-c2cncc(C3=C(N)N(c4ccccc4F)CC3=O)n2)cc1OC` [Compound 4] came in with an EC50 of 5 to 10 µM.

`NC1=C(c2cncc(-c3ccc(O)c(OC4COC4)c3)n2)C(=O)CN1CC1CCCC1` [Compound 70] yielded an EC50 of less than 5 µM.

`COc1ccc(-c2ccnc(C3=C(N)N(CC4CCCC4)CC3=O)n2)cc1OC` [Compound 56] had a half-maximal effective concentration (EC50) of more than 10 µM.

The molecule `NC1=C(c2cncc(-c3ccc(O)c(O)c3)n2)C(=O)CN1CCC(F)(F)F` [Compound 19] showed an EC50 of more than 10 µM.

The molecule `CNc1ccc(-c2cncc(C3=C(N)N(CC(C)C)CC3=O)n2)cc1NC` [Compound 26] displayed an EC50 of more than 10 µM.

Molecule `NC1=C(c2ccnc(-c3ccc(O)c(O)c3)n2)C(=O)CN1CC1CCCC1` [Compound 79] returned an EC50 of less than 5 µM.

Regarding `NC1=C(c2cncc(-c3ccc(O)c(O)c3)c2)C(=O)CN1c1ccccc1Cl` [Compound 47], the EC50 was more than 10 µM.
